Columns and labels:
[1] = Solubility of cis- and trans-2,2,4,4-tetramethylcyclobutanediol in isobutyl isobutyrate (GC of saturated liquid phase); type: physicochemical
Protocol: All of the solubility data and concentrations of cis and trans TMCD were measured by gas chromotography (GC) using an Agilent 6890GC instrument. The instrument was equipped with a split-splitless injector and flame ionization detection. The column is a DB®-Wax, 30 meter×0.25 mm ID, 0.50 μm film thickness column. The cis/trans ratio of the compositions was calculated from the respective concentrations.
The charge concentration of the isomers is expressed as weight % relative to the saturated concentration of each isomer at a temperature of 62.6° C.
The charge concentration of the isomers is expressed as weight % relative to the saturated concentration of each isomer at a temperature of 62.6° C. The vessel was equipped with a 4-blade flat blade pitched impeller for solids suspension, and the jacket was used to control the temperature of the vessel contents. The vessel was equipped with charging and sampling ports on top and a valve at the base to drain the vessel contents.
The slurry was allowed to stand for one hour sufficient for the solids to saturate the solvent at 6.4° C. At that time, a sample of the solution was drawn from the cell using a fritted pipette so as to remove only the liquid phase. The sample was analyzed for cis and trans isomer content. These values represented the saturated concentration of each isomer at the sampling temperature.
The cell contents were heated to 10.2° C. and the contents were held for a further hour to allow the slurry to equilibrate. A sample was then taken of the solution and analyzed. Following this procedure, data was gathered to 62.6° C.

[2] = Meta-stable zone width in isobutyl isobutyrate (colorimeter transmission on cooling from 90 to 10 °C); type: physicochemical; details: for Limit of MZW / MZW (meta-stable zone width): isobutyl isobutyrate; for difference in onset of nucleation between repeated cool-downs: Experiments 3 and 4 of Table 2, same cooling rate 5 °C/hr; for Limit of Meta-Stable Zone Width: Table 1A, in isobutyl isobutyrate, data points shown in FIG. 7
Excerpt: The meta-stable zone width was estimated by charging 800 grams of a solution containing 100 relative weight % cis-2,2,4,4-tetramethylcyclobutanediol and 69 relative weight % trans-2,2,4,4-tetramethylcyclobutanediol in isobutyl isobutyrate solvent to a 1.2 L jacketed glass vessel. The vessel was equipped with a 4-blade flat blade pitched impeller for solids suspension, and the jacket was used to control the temperature of the vessel contents. The vessel was equipped with charging and sampling ports on top and a valve at the base to drain the vessel. The vessel contents were heated to 90° C., at which temperature both isomers were completely in solution.
All measurements to estimate the meta-stable zone width were made using a Beckmann Instruments PC 800 Colorimeter device. The device operated by transmitting a white light source into the solution which was reflected from a mirror at a distance of several millimeters from the source back to a detector in the probe. When no particles were present in suspension, most of the light was reflected back to the detector. If the solution was relatively transparent, some of the light was adsorbed by the solution and some was diffracted, but the majority was reflected. If crystals were present, a substantial quantity of the white light was adsorbed by the crystal mass and diffracted and less of the light was reflected back to the detector. In order to calibrate the instrument, a reference intensity was measured when no crystals were in suspension, and this was referred to as the 100% transmittance level.
The colorimeter was placed in the vessel such that the probe tip was submerged in the solution. The crystal free solution was cooled from 90° C. to 10° C. at a pre-determined cooling rate indicated in Table 2 and the magnitude of the transmission signal of the white light source monitored. When crystals appeared in solution, the white light source was blocked and the transmission/reflection decreased rapidly. Two distinct step changes in the transmission signal were observed indicating the nucleation of cis- and trans-2,2,4,4-tetramethylcyclobutanediol in suspension. FIG. 8 is a graph showing the solubility of cis-and trans-2,2,4,4-tetramethylcyclobutanediol in isobutyl isobutyrate and operating points for continuous crystallization.

[3] = Table 1A, in isobutyl isobutyrate, extrapolated from the data of FIG. 7
[4] = Table 2, solution in isobutyl isobutyrate used for MZW experiments 1-4
[5] = in isobutyl isobutyrate, 6.4 °C, wt % relative to saturated concentration of each isomer at 62.6 °C
[6] = in isobutyl isobutyrate, 10.2 °C, relative to saturated concentration at 62.6 °C
[7] = in isobutyl isobutyrate, 19 °C, relative to saturated concentration at 62.6 °C
[8] = in isobutyl isobutyrate, 26.2 °C, relative to saturated concentration at 62.6 °C
[9] = in isobutyl isobutyrate, 34.7 °C, relative to saturated concentration at 62.6 °C
[10] = in isobutyl isobutyrate, 39.6 °C, relative to saturated concentration at 62.6 °C
[11] = in isobutyl isobutyrate, 44.5 °C, relative to saturated concentration at 62.6 °C
[12] = in isobutyl isobutyrate, 51.6 °C, relative to saturated concentration at 62.6 °C
[13] = in isobutyl isobutyrate, 58.8 °C, relative to saturated concentration at 62.6 °C
[14] = in isobutyl isobutyrate, 62.6 °C (reference temperature)
[15] = Experiment 1, cooling rate 15 °C/hr
[16] = Experiment 2, cooling rate 10 °C/hr
[17] = Experiment 3, cooling rate 5 °C/hr
[18] = Experiment 4, cooling rate 5 °C/hr

SMILES	Saturated Temperature [1, 3]	Saturated Temperature [1, 4]	Solubility [1, 5]	Solubility [1, 6]	Solubility [1, 7]	Solubility [1, 8]	Solubility [1, 9]	Solubility [1, 10]	Solubility [1, 11]	Solubility [1, 12]	Solubility [1, 13]	Solubility [1, 14]	Limit of MZW [2, 15]	MZW (meta-stable zone width) [2, 15]	Limit of MZW [2, 16]	MZW (meta-stable zone width) [2, 16]	Limit of MZW [2, 17]	MZW (meta-stable zone width) [2, 17]	Limit of MZW [2, 18]	MZW (meta-stable zone width) [2, 18]	further results
CC1(C)[C@H](O)C(C)(C)[C@@H]1O [Cis-2,2,4,4-tetramethylcyclobutanediol, cis-2,2,4,4-tetramethylcyclobutanediol]	68 °C	68 °C	0 Relative wt %	3 Relative wt %	10 Relative wt %	17 Relative wt %	29 Relative wt %	37 Relative wt %	47 Relative wt %	64 Relative wt %	86 Relative wt %	100 Relative wt %	50.94 °C	17.06 °C	51.77 °C	16.23 °C	60.38 °C	7.62 °C	58.24 °C	9.76 °C	difference in onset of nucleation between repeated cool-downs [2]: approximately 2 °C; Limit of Meta-Stable Zone Width [2]: 58.24 °C
CC1(C)[C@H](O)C(C)(C)[C@H]1O [Trans-2,2,4,4-tetramethylcyclobutanediol, trans-2,2,4,4-tetramethylcyclobutanediol]	57 °C	57 °C	1 Relative wt %	3 Relative wt %	10 Relative wt %	19 Relative wt %	32 Relative wt %	41 Relative wt %	52 Relative wt %	69 Relative wt %	89 Relative wt %	100 Relative wt %	48.67 °C	8.33 °C	49.29 °C	7.71 °C	50.34 °C	6.66 °C	50.36 °C	6.64 °C	difference in onset of nucleation between repeated cool-downs [2]: 0.02 °C; Limit of Meta-Stable Zone Width [2]: 50.36 °C

— patent publication US7989667B2, “Processes for the crystallization of 2,2,4,4-tetramethylcyclobutanediol” (Eastman Chemical Company, priority 2008, dated 2011)
